Experimental findings from patent US8455244B2, “Co-crystallization of ERR-α with a ligand that forms a reversible covalent bond” (Janssen Pharmaceutica N.V., priority 2009, dated 2013) are described below.

Structures are written as SMILES.

Experiment [1] addresses T1, ERR-α (Homo sapiens, UniProt P11474).
T1 sequence (P11474 with tags, fused parts or gaps): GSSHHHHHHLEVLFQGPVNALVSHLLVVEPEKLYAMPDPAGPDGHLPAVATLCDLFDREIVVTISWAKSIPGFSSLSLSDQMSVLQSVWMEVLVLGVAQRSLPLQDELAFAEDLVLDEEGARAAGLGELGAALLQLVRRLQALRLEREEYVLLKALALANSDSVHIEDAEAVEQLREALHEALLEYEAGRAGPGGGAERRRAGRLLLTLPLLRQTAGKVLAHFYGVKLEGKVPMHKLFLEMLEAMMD
Description: LC/MS dissociation rate with 20-fold excess Compound 2 as competing ligand. The following applies: ligand 1 μM, ERR-α 0.5 μM, competing ligand 20 μM, 37° C., assumed first order. The experiment is classed as binding. The arrangement: made in house; host or cells: Spodoptera frugiperda (Sf9) insect cells, baculovirus. An excerpt: The progress of the reaction was also expressed as a fraction of the area observed for the complex of ERR-α and the competing ligand over the sum of total area for the complex of ERR-α with the ligand and the complex of ERR-α with the competing ligand.
where k is the apparent rate constant.

The target in experiment [2] is ERR-α (Homo sapiens, UniProt P11474). The experiment can be described thus: biochemical. The procedure:
For TR-FRET measurements, the reaction was buffered in 25 mM Tris pH 8, 2.5 mM Hepes, 20 mM KCl, 1 mM DTT, and 0.05 mg/mL BSA (-lipids). […] Reactions were allowed to reach equilibrium at 25° C. for 4-18 hours before collecting data on the Analyst from LJL Biosystems (Molecular Devices Sunnyvale, Calif.).
Target sequence in this assay (P11474 with tags, fused parts or gaps limits assumed): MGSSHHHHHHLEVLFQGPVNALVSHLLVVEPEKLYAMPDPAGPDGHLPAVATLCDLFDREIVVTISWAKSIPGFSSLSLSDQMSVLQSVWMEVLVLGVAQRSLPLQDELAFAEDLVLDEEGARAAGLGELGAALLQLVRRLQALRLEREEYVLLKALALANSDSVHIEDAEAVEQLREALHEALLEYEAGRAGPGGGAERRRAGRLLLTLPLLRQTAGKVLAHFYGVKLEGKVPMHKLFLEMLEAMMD

Experiment [3] has as its target T1, ERR-α. Description: biochemical. The following applies: pH 7.9, read-out: ka.
Description: To monitor the kinetics of association and dissociation for ligands that formed a complex with ERR-α by forming a covalent bond to Cys325 of ERR-α, LC/MS detection was employed. LC analysis was performed on an Agilent 1100 LC system that was in line with an Agilent MSD TOF for mass detection. Software provided by the vendor was used to deconvolute the ESI positive ion quadrupole time-of-flight spectra. To measure association rates, typically a 1 μM ERR-α solution was mixed with an equal volume of a 2 μM ligand solution. […]
For the apo form of ERR-α, a mass of 27042 was detected, corresponding to an amino acid sequence where the initiator methionine is cleaved followed by N-terminal acetylation.
Association and dissociation rates for ligands were determined by fitting fractional values obtained for the progress of the reaction as a function of time using a single exponential equation progress of reaction=e^−kt
where k is the apparent rate constant. For the dissociation experiments, the reaction is assumed to be first order and dissociation rates, kd, are expressed as s^−1. For the association rates, k^a, the reaction is assumed to be second order and the rates are expressed as M^−1s^−1 by dividing the apparent rate constants by the concentration of the protein determined by experimental conditions (Table 4).

`COc1cc(/C=C2\SC(N)=NC2=O)ccc1Oc1ccc(C#N)cc1C(F)(F)F` [Compound 5] registered a kd on ERR-α [1] of 2.05e-05 s⁻¹.

At ERR-α [1], `COc1cc(/C=C2\SC(N3CCN(C)CC3)=NC2=O)ccc1Oc1ccc(C#N)cc1C(F)(F)F` [Compound 3] registered a kd of 1.53e-05 s⁻¹.

`COC(=O)c1ccc(Oc2ccc(/C=C3\SC(=O)NC3=O)cc2OC)c(C(F)(F)F)c1` [Compound 2] yielded an EC50 at ERR-α [2] of 11 nM.

For the compound `COc1cc(/C=C2\SC(=O)NC2=O)ccc1Oc1ccc(C#N)cc1C(F)(F)F` [Compound 1], the kon at ERR-α [3] was found to be 6600 M⁻¹ s⁻¹. This compound also registered a kd at ERR-α [1] of 1.1e-05 s⁻¹.

In the case of `CN1CCN(C2=NC(=O)/C(=C/c3ccc(Oc4ccc(C#N)cc4C(F)(F)F)c(F)c3)S2)CC1` [Compound 4], the kd on ERR-α [1] was 2.19e-05 s⁻¹.
